Assay results published in PubChem BioAssay (NCI).
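All cell lines were grown in 96-well plates and treated with compound for 48 hours. GI50 = concentration required for 50% inhibition of growth. At the TGI there is no net growth.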

Experiments:
Assay in all cases: NCI-60 cell line screen, 48 h
[1] = tested on: IGROV1 ovarian
[2] = tested on: SF-295 CNS
[3] = tested on: ACHN renal
[4] = tested on: RXF 393 renal
[5] = tested on: UACC-257 melanoma
[6] = tested on: HL-60(TB) leukemia
[7] = tested on: MCF7 breast
[8] = tested on: KM12 colon
[9] = tested on: SW-620 colon
[10] = tested on: SK-MEL-2 melanoma
[11] = tested on: HOP-62 NSCLC

CCC(=O)NC(Nc1cccc(F)c1)(C(F)(F)F)C(F)(F)F
TGI [1]: > 100 µM | TGI [2]: > 100 µM | TGI [3]: > 100 µM | TGI [4]: > 100 µM | TGI [5]: > 100 µM | TGI [6]: > 100 µM | TGI [7]: > 100 µM | TGI [8]: > 100 µM | TGI [9]: > 100 µM | TGI [10]: > 100 µM

c1ccc(N=c2nc(N3CCOCC3)ss2)cc1
TGI [1]: 52.7 µM | TGI [11]: > 100 µM | TGI [2]: 35.1 µM | TGI [3]: 30.9 µM | TGI [4]: 31.3 µM | TGI [5]: 29.8 µM | TGI [6]: 47.3 µM | TGI [8]: 32.5 µM | TGI [9]: 21.8 µM | TGI [10]: 43.4 µM

Fc1ccc(-c2nn3c(-c4cc(C(F)(F)F)cc(C(F)(F)F)c4)nnc3s2)cc1
GI50 [1]: 1.66 µM | TGI [1]: > 50 µM | GI50 [11]: 1.2 µM | TGI [11]: 3.35 µM | GI50 [2]: 1.72 µM | TGI [2]: > 50 µM | GI50 [4]: 1.78 µM | TGI [4]: > 50 µM | GI50 [7]: > 50 µM | TGI [7]: > 50 µM | GI50 [8]: > 50 µM | TGI [8]: > 50 µM | GI50 [9]: > 50 µM | TGI [9]: > 50 µM | GI50 [10]: 1.64 µM | TGI [10]: 4.75 µM

CC(=O)O[C@H]1C=CC(=O)C(C)CC1C (stereo partly specified)
TGI [1]: > 100 µM | TGI [11]: > 100 µM | TGI [2]: > 100 µM | TGI [3]: > 100 µM | TGI [4]: > 100 µM | TGI [5]: > 100 µM | TGI [6]: > 100 µM | TGI [8]: > 100 µM | TGI [9]: > 100 µM | TGI [10]: > 100 µM

CCCC(N)C(=O)c1ccccc1 (stereo unspecified)
TGI [1]: > 100 µM | TGI [11]: > 100 µM | TGI [2]: > 100 µM | TGI [3]: > 100 µM | TGI [4]: > 100 µM | TGI [5]: > 100 µM | TGI [6]: > 100 µM | TGI [8]: > 100 µM | TGI [9]: > 100 µM | TGI [10]: > 100 µM

COC1=CC(=O)c2c(cc(COP(=O)(OCC3OC(n4cc(F)c(=O)[nH]c4=O)CC3O)N(C)CCCCCl)n2C)C1=O (stereo unspecified)
TGI [1]: 23.7 µM | TGI [11]: 26.8 µM | TGI [2]: 1.36 µM | TGI [3]: > 100 µM | TGI [4]: 4.71 µM | TGI [5]: > 47.5 µM | TGI [6]: 16 µM | TGI [7]: 1.84 µM | TGI [8]: 97.9 µM | TGI [9]: > 59.9 µM | TGI [10]: 56.6 µM

Cc1cc(C)nc(SCC(=O)OC2CC(C)CCC2C(C)C)n1 (stereo unspecified)
TGI [1]: 65.6 µM | TGI [11]: 27.2 µM | TGI [2]: 31.6 µM | TGI [3]: 38.6 µM | TGI [4]: 32 µM | TGI [5]: 41.7 µM | TGI [6]: 44.2 µM | TGI [7]: 50.7 µM | TGI [8]: 42.7 µM | TGI [9]: 52.3 µM | TGI [10]: 41.9 µM

CN1C[C@H]2[C@@H](C1=O)[C@H](c1ccccc1)ON2C
TGI [1]: > 100 µM | TGI [11]: > 100 µM | TGI [2]: > 100 µM | TGI [3]: > 100 µM | TGI [5]: > 100 µM | TGI [7]: > 100 µM | TGI [9]: > 100 µM | TGI [10]: > 100 µM

O=C(Nc1c(C(=O)NC2CCCCC2)[nH]c(=O)[nH]c1=O)c1ccc(Cl)cc1
TGI [1]: > 100 µM | TGI [11]: > 100 µM | TGI [2]: > 100 µM | TGI [3]: > 100 µM | TGI [4]: > 100 µM | TGI [6]: > 100 µM | TGI [8]: > 100 µM | TGI [9]: > 100 µM

CC(=O)OCC1=C(C(=O)O)C(c2ccc3c(c2)OCO3)c2cc3c(cc2O1)OCO3 (stereo unspecified)
TGI [1]: > 100 µM | TGI [11]: > 100 µM | TGI [2]: > 100 µM | TGI [3]: > 100 µM | TGI [4]: > 100 µM | TGI [5]: > 100 µM | TGI [6]: > 100 µM | TGI [9]: > 100 µM

Cc1cc(C)c2c(c1)C1=NCCN1C2(O)c1ccc(Cl)cc1 (stereo unspecified)
TGI [1]: 27.4 µM | TGI [11]: 29.3 µM | TGI [2]: 31.4 µM | TGI [3]: 29.6 µM | TGI [4]: 27.6 µM | TGI [5]: 31.9 µM | TGI [6]: 49.4 µM | TGI [7]: 34.3 µM | TGI [8]: 30 µM | TGI [9]: 29.2 µM | TGI [10]: 34.7 µM

NC1(C(=O)O)CCc2ccc(N(CCCl)CCCl)cc2C1 (stereo unspecified)
TGI [1]: > 100 µM | TGI [11]: 63.5 µM | TGI [2]: > 100 µM | TGI [4]: > 100 µM | TGI [5]: > 100 µM | TGI [6]: > 100 µM | TGI [7]: > 100 µM | TGI [8]: > 100 µM | TGI [9]: > 100 µM | TGI [10]: > 100 µM

N=C(N)SCc1cc(Cl)cc(Cl)c1O
TGI [1]: 38.2 µM | TGI [11]: 38 µM | TGI [2]: 55.7 µM | TGI [3]: 36.4 µM | TGI [4]: 46.8 µM | TGI [5]: 31.6 µM | TGI [6]: 21.1 µM | TGI [7]: 60.1 µM | TGI [8]: 33.7 µM | TGI [9]: 49.4 µM | TGI [10]: 39.6 µM

CCCCCCCNC(P(=O)(O)O)P(=O)(O)O
TGI [1]: > 100 µM | TGI [11]: > 100 µM | TGI [2]: > 100 µM | TGI [3]: > 100 µM | TGI [5]: > 100 µM | TGI [6]: > 100 µM | TGI [7]: > 100 µM | TGI [8]: > 100 µM | TGI [9]: > 100 µM | TGI [10]: > 100 µM

Cc1ccc(C2N=C(N)NC3=C2CCOc2c3ccc3ccccc23)cc1 (stereo unspecified)
GI50 [1]: 44.6 µM | TGI [1]: > 100 µM | TGI [11]: 35.1 µM | TGI [2]: 62.2 µM | GI50 [3]: 16.6 µM | TGI [3]: > 73.7 µM | TGI [4]: 97.9 µM | TGI [5]: > 65.7 µM | TGI [6]: 19 µM | TGI [7]: > 51.5 µM | TGI [8]: > 51.1 µM | TGI [9]: > 100 µM | TGI [10]: > 100 µM

O=C(Nc1ccc(Sc2ccc(N=Nc3c(O)c(S(=O)(=O)O)cc4cc(S(=O)(=O)O)ccc34)cc2)cc1)c1ccc(N=Nc2c(O)ccc3c(S(=O)(=O)O)cc(S(=O)(=O)O)cc23)cc1
TGI [1]: > 100 µM | TGI [11]: > 100 µM | TGI [2]: > 100 µM | TGI [3]: > 100 µM | TGI [4]: > 100 µM | TGI [5]: > 100 µM | TGI [6]: 33.5 µM | TGI [8]: > 100 µM | TGI [9]: > 100 µM | TGI [10]: > 100 µM

N#CC(Nc1cccc(C(F)(F)F)c1)c1ccccc1C(F)(F)F (stereo unspecified)
TGI [1]: 38.1 µM | TGI [11]: 10.8 µM | TGI [2]: 22.2 µM | TGI [3]: 27.6 µM | TGI [4]: 24.8 µM | TGI [5]: 27.7 µM | TGI [6]: 7.57 µM | TGI [8]: 19.9 µM | TGI [9]: 11 µM | TGI [10]: 17.9 µM

Clc1ccc(CNc2nc(Cl)c3[nH]cnc3n2)cc1Cl
TGI [1]: > 100 µM | TGI [11]: 89.2 µM | TGI [2]: > 100 µM | TGI [3]: > 100 µM | TGI [4]: > 100 µM | TGI [5]: 48.9 µM | TGI [7]: 84.5 µM | TGI [8]: > 100 µM | TGI [10]: 77.9 µM

O=C(O)C1CCC(=O)N1S(=O)(=O)c1ccccc1 (stereo unspecified)
TGI [1]: > 100 µM | TGI [11]: > 100 µM | TGI [2]: > 100 µM | TGI [4]: > 100 µM | TGI [5]: > 100 µM | TGI [6]: > 100 µM | TGI [7]: > 100 µM | TGI [8]: > 100 µM | TGI [9]: > 100 µM | TGI [10]: > 100 µM
